Test results published in ChEMBL document CHEMBL1201862, “PubChem BioAssay data set” (2004).
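Cells were grown in 96-well plates and exposed to each compound for 48 hours at five concentrations; endpoints were interpolated linearly between bracketing concentrations, or set to the highest concentration if not reached. GI50 = concentration required for 50% inhibition of growth.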 The source made the active and inactive calls. Cut-off read from the data, not from the text of the source: active = GI50 up to about 1.1 µM and inactive = higher.

How the values were obtained:
Assay in all cases: inhibition of tumour cell growth, NCI panel, 48 h
A498 = system: A498
BT-549 = system: BT-549
DU-145 = system: DU-145
HCC 2998 = system: HCC 2998
HT-29 = system: HT-29
IGROV-1 = system: IGROV-1
KM12 = system: KM12
MOLT-4 = system: MOLT-4
NCI-H23 = system: NCI-H23
OVCAR-3 = system: OVCAR-3
OVCAR-8 = system: OVCAR-8
SF-268 = system: SF-268
SF-295 = system: SF-295
SK-MEL-28 = system: SK-MEL-28
SK-MEL-2 = system: SK-MEL-2
SR = system: SR
T47D = system: T47D
TK-10 = system: TK-10
U-251 = system: U-251
UO-31 = system: UO-31

Row | Structure (SMILES) | GI50 (A498) | GI50 (BT-549) | GI50 (DU-145) | GI50 (HCC 2998) | GI50 (HT-29) | GI50 (IGROV-1) | GI50 (KM12) | GI50 (MOLT-4) | GI50 (NCI-H23) | GI50 (OVCAR-3) | GI50 (OVCAR-8) | GI50 (SF-268) | GI50 (SF-295) | GI50 (SK-MEL-28) | GI50 (SK-MEL-2) | GI50 (SR) | GI50 (T47D) | GI50 (TK-10) | GI50 (U-251) | GI50 (UO-31)
1 | COc1cc(/C=C\c2nnc(/C=C\c3ccc(O)c(OC)c3)s2)ccc1O | 2.27 µM (inactive) | 1.89 µM (inactive) | 2.32 µM (inactive) | 3.48 µM (inactive) | 7.31 µM (inactive) | 3.78 µM (inactive) | 2.2 µM (inactive) | 1.74 µM (inactive) | 2.45 µM (inactive) | 1.91 µM (inactive) | 3.78 µM (inactive) | 4.06 µM (inactive) | 3.48 µM (inactive) | 5.35 µM (inactive) | 3.61 µM (inactive) | 1.24 µM (inactive) | 2.12 µM (inactive) | 4.89 µM (inactive) | 3.06 µM (inactive) | 3.47 µM (inactive)
2 | Cc1nnc(Sc2nc(C#N)c(C#N)nc2Sc2nnc(C)s2)s1 | 18.7 µM (inactive) | 5.61 µM (inactive) | 14.9 µM (inactive) | 20 µM (inactive) | 4.18 µM (inactive) | 7.24 µM (inactive) | 23.8 µM (inactive) | 2.25 µM (inactive) | 17.5 µM (inactive) | 6.32 µM (inactive) | 2.47 µM (inactive) | 23.6 µM (inactive) | 22.8 µM (inactive) | 10.5 µM (inactive) | 18.4 µM (inactive) | 9.79 µM (inactive) | 2.54 µM (inactive) | 11.1 µM (inactive) | 19.8 µM (inactive) | 3.35 µM (inactive)
3 | C=CCn1c2c(c3ccccc3c1=O)C(=O)c1ccccc1-2 | > 100 µM (inactive) | > 100 µM (inactive) | > 89.3 µM (inactive) | > 100 µM (inactive) | > 100 µM (inactive) | > 100 µM (inactive) | > 72.9 µM (inactive) | 3.4 µM (inactive) | > 100 µM (inactive) | > 100 µM (inactive) | > 88.9 µM (inactive) | > 68.1 µM (inactive) | > 77.8 µM (inactive) | > 100 µM (inactive) | > 100 µM (inactive) | 3.97 µM (inactive) | > 100 µM (inactive) | > 50.6 µM (inactive) | 30.8 µM (inactive) | > 100 µM (inactive)
4 | Cc1ccc([N+](=O)[O-])c2c(NCCNC(=O)c3cc(C(=O)NCCNc4ccnc5c(C)ccc([N+](=O)[O-])c45)n(C)n3)ccnc12 | > 57.4 µM (inactive) | > 100 µM (inactive) | > 100 µM (inactive) | > 100 µM (inactive) | > 77.8 µM (inactive) | > 100 µM (inactive) | > 100 µM (inactive) | 31.7 µM (inactive) | > 84.9 µM (inactive) | > 80.9 µM (inactive) | > 72.1 µM (inactive) | > 100 µM (inactive) | > 79.6 µM (inactive) | > 60.5 µM (inactive) | > 100 µM (inactive) | 55.1 µM (inactive) | > 77.8 µM (inactive) | > 80.7 µM (inactive) | > 89.5 µM (inactive) | > 100 µM (inactive)
5 | c1cnc2c(c1)ccc1cccnc12 | 12.6 µM (inactive) | 9.79 µM (inactive) | 4.13 µM (inactive) | 6.7 µM (inactive) | 4.55 µM (inactive) | 4.26 µM (inactive) | 4.93 µM (inactive) | 2.86 µM (inactive) | 5.12 µM (inactive) | 6.67 µM (inactive) | 4.36 µM (inactive) | 4.07 µM (inactive) | 3.52 µM (inactive) | 4.95 µM (inactive) | > 28.4 µM (inactive) | 1.02 µM (active) | 4.92 µM (inactive) | 3.88 µM (inactive) | > 20.2 µM (inactive) | 2.3 µM (inactive)
6 | COc1cccc2c1C(=O)C1=C(C2=O)C(O)CC(C)(C)O1 (stereo unspecified) | > 100 µM (inactive) | 63.7 µM (inactive) | > 100 µM (inactive) | 33.6 µM (inactive) | 37.7 µM (inactive) | 31.6 µM (inactive) | 27.9 µM (inactive) | 29 µM (inactive) | 28.5 µM (inactive) | 13.1 µM (inactive) | 27.7 µM (inactive) | 55.5 µM (inactive) | 70.3 µM (inactive) | > 100 µM (inactive) | 36.2 µM (inactive) | 16.3 µM (inactive) | 49.8 µM (inactive) | > 100 µM (inactive) | 32.4 µM (inactive) | 58.9 µM (inactive)
7 | Cn1c(=O)oc2nc(-c3ccccc3)cc(C(F)(F)F)c21 | 39.2 µM (inactive) | > 100 µM (inactive) | > 100 µM (inactive) | > 100 µM (inactive) | 33.2 µM (inactive) | > 100 µM (inactive) | 9.93 µM (inactive) | 14.3 µM (inactive) | > 100 µM (inactive) | 32.8 µM (inactive) | > 100 µM (inactive) | > 100 µM (inactive) | > 100 µM (inactive) | > 100 µM (inactive) | > 100 µM (inactive) | 44.6 µM (inactive) | > 100 µM (inactive) | > 100 µM (inactive) | 95.3 µM (inactive) | > 100 µM (inactive)
8 | COC(=O)c1cc(C)ccc1/C=C1\Cc2c(C)cc(C)cc2C1=O | 30.8 µM (inactive) | 36.5 µM (inactive) | > 100 µM (inactive) | > 100 µM (inactive) | 10.8 µM (inactive) | 65.3 µM (inactive) | > 44 µM (inactive) | > 100 µM (inactive) | 14.5 µM (inactive) | 70.6 µM (inactive) | 47 µM (inactive) | 15.3 µM (inactive) | 3.61 µM (inactive) | 99.1 µM (inactive) | 22.8 µM (inactive) | 20 µM (inactive) | > 97.3 µM (inactive) | 17.9 µM (inactive) | 14 µM (inactive) | 12.3 µM (inactive)
9 | CC(=O)OC(C#N)CC(C)(C)/[N+]([O-])=[N+](\[O-])C(C)(C)CC(C#N)OC(C)=O (stereo unspecified) | 44.6 µM (inactive) | 14.8 µM (inactive) | 18 µM (inactive) | 16.1 µM (inactive) | 18.4 µM (inactive) | 10.8 µM (inactive) | 14.5 µM (inactive) | 3.24 µM (inactive) | 17 µM (inactive) | 16.6 µM (inactive) | 16.1 µM (inactive) | 10.8 µM (inactive) | 38.3 µM (inactive) | 26 µM (inactive) | 24.3 µM (inactive) | 2.41 µM (inactive) | 15.5 µM (inactive) | 15.9 µM (inactive) | 15.8 µM (inactive) | 19.5 µM (inactive)
10 | O=C(O)CN1CCN(CC(=O)N2CCN(C(=O)OCc3ccccc3)CC2)CCN(CC(=O)O)CCN(CC(=O)N2CCN(C(=O)OCc3ccccc3)CC2)CC1 | > 100 µM (inactive) | > 100 µM (inactive) | > 100 µM (inactive) | > 100 µM (inactive) | > 100 µM (inactive) | > 100 µM (inactive) | > 100 µM (inactive) | > 100 µM (inactive) | – | > 100 µM (inactive) | > 100 µM (inactive) | – | > 100 µM (inactive) | > 100 µM (inactive) | > 100 µM (inactive) | > 100 µM (inactive) | > 100 µM (inactive) | > 100 µM (inactive) | > 100 µM (inactive) | > 100 µM (inactive)
11 | Cc1cc(N(CCC#N)CCC#N)ccc1C(/N=N\c1ccc([N+](=O)[O-])cc1)=N\NC(=O)c1cc(Cl)ccc1O | 26.7 µM (inactive) | 34.8 µM (inactive) | 46.3 µM (inactive) | 16.4 µM (inactive) | 29.4 µM (inactive) | 24.2 µM (inactive) | 27.7 µM (inactive) | 20.3 µM (inactive) | 15.6 µM (inactive) | 14.2 µM (inactive) | 19.8 µM (inactive) | 19.9 µM (inactive) | 29.1 µM (inactive) | – | 34.4 µM (inactive) | 24.3 µM (inactive) | 25.9 µM (inactive) | 46.1 µM (inactive) | 46.1 µM (inactive) | 13.8 µM (inactive)
12 | [N-]=[N+]=NCC1OC(n2cnc3c(N)ncnc32)C2OC12 (stereo unspecified) | > 100 µM (inactive) | > 100 µM (inactive) | > 100 µM (inactive) | > 100 µM (inactive) | > 100 µM (inactive) | > 100 µM (inactive) | > 100 µM (inactive) | > 100 µM (inactive) | > 100 µM (inactive) | > 100 µM (inactive) | > 100 µM (inactive) | > 100 µM (inactive) | > 100 µM (inactive) | > 100 µM (inactive) | > 100 µM (inactive) | > 100 µM (inactive) | > 100 µM (inactive) | > 100 µM (inactive) | > 100 µM (inactive) | > 100 µM (inactive)
13 | O=C1c2ccccc2C(=O)N1NC1=NCCN1 | > 100 µM (inactive) | > 100 µM (inactive) | > 100 µM (inactive) | > 100 µM (inactive) | > 100 µM (inactive) | > 100 µM (inactive) | > 100 µM (inactive) | > 100 µM (inactive) | > 100 µM (inactive) | > 100 µM (inactive) | > 100 µM (inactive) | > 100 µM (inactive) | > 100 µM (inactive) | > 100 µM (inactive) | > 100 µM (inactive) | > 100 µM (inactive) | > 100 µM (inactive) | > 100 µM (inactive) | > 100 µM (inactive) | –
14 | CC1=[N+](C)CCCN1C | 8.69 µM (inactive) | > 100 µM (inactive) | > 100 µM (inactive) | > 100 µM (inactive) | > 100 µM (inactive) | > 100 µM (inactive) | > 100 µM (inactive) | > 100 µM (inactive) | > 100 µM (inactive) | > 100 µM (inactive) | > 100 µM (inactive) | > 100 µM (inactive) | > 100 µM (inactive) | > 100 µM (inactive) | > 100 µM (inactive) | > 100 µM (inactive) | > 100 µM (inactive) | > 100 µM (inactive) | > 100 µM (inactive) | > 100 µM (inactive)
